# Experimental data taken from patent publication US20190142722A1, “METHODS AND COMPOSITIONS FOR PROMOTING OR INDUCING HAIR GROWTH” (THE TRUSTEES OF COLUMBIA UNIVERSITY IN THE CITY OF NEW YORK, priority 2017, published 2019).
# B1: IL-6: gp130 cytokine, murine IL-6 (protein, UniProt P08505 25-211, looked up)
# Interleukin-6: FPTSQVRRGDFTEDTTPNRPVYTTSQVGGLITHVLWEIVEMRKELCNGNSDCMNNDDALAENNLKLPEIQRNDGCYQTGYNQEICLLKISSGLLEYHSYLEYMKNNLKDNKKDKARVLQRDTETLIHIFNQEVKDLHKIVLPTPISNALLTDKLESQKEWLRTKTIQFILKSLEEFLKVTLRSTRQT
# B2: OSM: secreted cytokine of the LIF/OSM family; murine OSM used in tests (protein, UniProt P53347 25-206, looked up)
# Oncostatin-M: NRGCSNSSSQLLSQLQNQANLTGNTESLLEPYIRLQNLNTPDLRAACTQHSVAFPSEDTLRQLSKPHFLSTVYTTLDRVLYQLDALRQKFLKTPAFPKLDSARHNILGIRNNVFCMARLLNHSLEIPEPTQTDSGASRSTTTPDVFNTKIGSCGFLWGYHRFMGSVGRVFREWDDGSTRSRR
# What was measured:
# telogen skin [1] = assay: Anagen induction by topical JAK inhibitor in mouse telogen skin; assay type: in vivo; settings: topical to dorsal skin for 5 days at P60 (mid-telogen), C57BL/6 mice
# Excerpt: (§1) Mice were carefully shaved with clippers during telogen to reveal the pink skin typical of the telogen phase 1 week prior to the experiment. Mice that were inadvertently wounded were not used. Anagen was induced by topical application of 2% Ruxolitinib in DMSO to the right side of the dorsal skin daily for 5 consecutive days. The hair cycle was observed and documented with standardized photographs taken prior to the first treatment, and then twice weekly thereafter. Murine IL-6, LIF or OSM (100 ng/ml, 50 ng/ml, 125 ng/ml respectively) were dissolved in sterile PBS and 100 μl was injected into the center of the field of application daily for 10 consecutive days, beginning with the first application of Ruxolitinib.
# (§2) OSM and other gp130 cytokines (IL-6 and Leukemia Inhibitory Factor, LIF) were tested for their ability to inhibit anagen resulting from topical JAK inhibitors, which resembles spontaneous anagen. C57BL/6 mice were treated on the right dorsal skin topically with Ruxolitinib 2% in DMSO at P60 (mid-telogen) for 5 days, recapitulating previous experiments in Harel, S., et al., Pharmacologic inhibition of JAK-STAT signaling promotes hair growth. Sci Adv, 2015. 1(9): p. e1500973. […] From P60, mice were also injected with control PBS or a gp130 cytokine (IL-6, LIF or OSM) into the middle of the field of topical application for 10 days. […] (FIG. 1A).
# [2] = test system: Hair follicle stem cells (HFSCs); assay: Western blot of cultured HFSCs stimulated with OSM, with or without JAK inhibitor pre-treatment; assay type: cell-based, mouse
# Experimental: (§3) HFSCs (ITGA6+ Sca-1−) cells were collected from flow cytometry and plated onto 6-well plates, and maintained with Cnt-07S keratinocyte media. In vitro stimulation experiments were carried out when keratinocytes were 80-90% confluent. Confluent HFSCs were pre-treated with JAK inhibitors (tofacitinib, ruxolitinib or PF-06651600, all at 10 μM) for 20 min, and murine OSM was added for a final concentration of 10 ng/ml or 20 ng/ml for 15 min. For clonogenic assays, HFSCs were plated at a density of 10,000 cells per well and maintained for 2 weeks. For analysis of clonogenicity, plates were washed with PBS, and keratinocytes were fixed in situ with 4% paraformaldehyde (PFA) for 1 hour, followed by staining with 1% (wt/vol) Rhodamine B (Sigma-Aldrich) for 1 h. Clones were quantified using a backlight.
# Cells were lyzed in RIPA buffer in the presence of protease and phosphatase inhibitors on ice, and protein lysates were resuspended in Laemmli sample buffer. Whole-cell lysates were fractionated on TGX Stain-free protein gels and transferred to a PVDF membrane, blocked with 5% non-fat milk in TBST, and incubated with antibodies listed in the Key Resources Table (all 1:1000, diluted in TBST/3% BSA) overnight. Membranes were washed the following day and incubated with HRP-conjugated secondary antibodies (1:5000), washed, and developed with Luminata Forte Western HRP Substrate and visualized on the BioRAD ChemiDOC MP Imaging system. GAPDH or (3-actin were used as loading controls, depending on the mass of the proteins of interest.
# Hair follicle stem cells (HFSCs) (ITGA6+ Sca-1− population isolated from telogen skin), were cultured and stimulated with OSM at 10 ng/ml and 20 ng/ml. […] (FIG. 1C).
# macrophages = assay: Macrophage inhibition during telogen to initiate anagen; assay type: in vivo, mouse; settings: mid-telogen, C57BL/6 mice
# Experimental: (§4) Neutralizing antibodies to OSMR (7.5 μg) were injected intradermally into the dorsal telogen skin daily for 14 days from P60 (mid-telogen). Neutralizing antibodies to CSFL1R (AFS98) and F4/80 (CI:A3-1) were diluted in sterile PBS, and 500 μg was injected intradermally into the dorsal telogen skin for 14 consecutive days. Neutralizing antibodies to CD25 (PC61.5) were injected intraperitoneally every other day (250 μg/dose×3) from P53, prior to anagen induction at P60.
# (§5) For in vivo macrophage inhibition, the small molecule Pexidartinib/PLX3397 was administered topically (2 mM in DMSO) or subcutaneously (1 mM in corn oil) for 5 consecutive days from P60. For OSM knock-down, peritoneal macrophages were harvested from adult C57BL/6 mice and cultured in DMEM/F12/15% FBS/0.3 mMCa2+ the presence of […] M-CSF to polarize them to an “M2-like” phenotype, similar to trichophages. Lentiviral precipitate containing scrambled or OSM shRNA added to the media in the presence of 8 μg/ml protamine sulphate, and the cells were centrifuged at 3000 rpm for 1 h at 32° C. to enhance transduction. Successful transductions were enriched with puromycin (1 μg/ml) selection, counted and used for the patch assay.
# Three independent methods of macrophage inhibition during telogen were used to initiate anagen in C57BL/6 mice.
# [3] = test system: T regulatory cells / macrophages; assay: Anagen initiation after T regulatory cell depletion or macrophage targeting; assay type: in vivo, mouse
# Experimental: as §4
# (ITGA6+ Sca-1−) HFSCs = assay: Colony-forming assay with isolated HFSCs; assay type: cell-based, mouse; settings: for colony formation of HFSCs: OSM 10 ng/ml or Tofacitinib 100 nM alone
# Experimental: as §3
# Colony-forming assays with isolated (ITGA6+ Sca-1−) HFSCs were performed in the presence of OSM (10 ng/ml), Tofacitinib (100 nM) or both. […] (FIG. 1E).
# [4] = test system: Neonatal keratinocytes and dermal cells; assay: Hair reconstitution (patch) assay; assay type: in vivo; settings: tofacitinib 400 nM or OSM 25 ng/ml added to cell slurry injected intradermally into nude mouse
# Experimental: as §5
# Neonatal (P0 or P1) mice were sacrificed and skins were harvested for the patch assay. Neonatal skins were enzymatically separated with 0.25% trypsin, and the dermis was further digested with 0.3% collagenase/DNase. Neonatal keratinocytes and dermal cells were counted recombined in a 1:1 ratio ([…] each) and resuspended in 100 μl of media (1:1 mix of DMEM/10% FBS and CnT-0.7S) and injected intradermally into the dorsal skin of a nude mouse. For pharmacological/cytokine treatment, tofacitinib (400 nM) and/or OSM (25 ng/ml) was added. […]
# alopecia areata = settings: patients, literature (Mackay-Wiggan 2016; Kennedy Crispin 2016); cited from earlier work
# telogen skin [5] = assay: Inhibition of topical JAK inhibitor-induced anagen by intradermal gp130 cytokines; assay type: in vivo, mouse; settings: cytokine injected intradermally into middle of field of topical application for 10 days from P60, C57BL/6 mice
# Excerpt: as §1, §2
# hair follicles = settings: cited from earlier work
# [6] = pre-treatment 10 μM for 20 min before OSM
# [7] = OSM at 10 ng/ml and 20 ng/ml, cultured HFSCs
molecule,measurement,setting,value
C=CC(=O)N1C[C@H](Nc2ncnc3[nH]ccc23)CC[C@@H]1C [PF-06651600],anagen induction in telogen skin,telogen skin [1],sufficient to initiate anagen
same,effect on JAK phosphorylation in OSM-stimulated HFSCs (Western blot),[2]; [6],did not have an effect on JAK1/JAK2/Tyk2 or STAT3 phosphorylation
same,effect on pSTAT3 / pSTAT5 activation in OSM-stimulated HFSCs (Western blot),[2]; [6],without significant inhibition of STAT3 phosphorylation
same,effect on pSTAT3 / pSTAT5 activation in OSM-stimulated HFSCs (Western blot),"[2]; pre-treatment 10 μM for 20 min before OSM, listed as PF-06651660",still inhibited pSTAT5 activation
"FC(F)(F)c1ccc(CNc2ccc(Cc3c[nH]c4ncc(Cl)cc34)cn2)cn1 [Pexidartinib, 5-[(5-chloro-1H-pyrrolo[2,3-b]pyridin-3-yl)methyl]-N-[[6-(trifluoromethyl)pyridin-3-yl]methyl]pyridin-2-amine]",anagen initiation,macrophages; subcutaneous (1 mM in corn oil) for 5 days,successful at initiating anagen
same,anagen initiation,macrophages; topical (2 mM in DMSO) for 5 days,successful at initiating anagen
same,anagen initiation compared with wild-type mice treated with a JAK-inhibitor,[3],initiated anagen in the same manner as wild-type mice treated with a JAK-inhibitor
C[C@@H]1CCN(C(=O)CC#N)C[C@@H]1N(C)c1ncnc2[nH]ccc12 [Tofacitinib],effect on JAK phosphorylation in OSM-stimulated HFSCs (Western blot),[2]; [6],inhibited phosphorylation of a variety of JAKs
same,effect on pSTAT3 / pSTAT5 activation in OSM-stimulated HFSCs (Western blot),[2]; [6],inhibited both pSTAT3 and pSTAT5 activation
same,inhibition of OSM-activated pathways by pre-treatment (Western blot),"[2]; pre-treatment 10 μM for 20 min before OSM, cultured HFSCs","inhibited the JAK-STAT and, to a lesser extent, the MAPK-MEK-ERK pathways"
same,colony formation of HFSCs,(ITGA6+ Sca-1−) HFSCs,"increased the colony-forming ability of HFSCs, as well as increasing the colony size"
same,rescue of the inhibitory effects of OSM on colony formation,(ITGA6+ Sca-1−) HFSCs; Tofacitinib 100 nM together with OSM 10 ng/ml,sufficient to rescue the inhibitory effects of OSM
same,hair reconstitution in patch assay,[4],enhanced the hair follicles generated in this assay
same,efficacy in alopecia areata,alopecia areata,efficacious in the treatment of alopecia areata
B1,inhibition of anagen resulting from topical Ruxolitinib,telogen skin [5],OSM was the only member of this class of cytokines that inhibited anagen
same,induction of catagen,"hair follicles; anagen HFs, literature (Kwack 2012)",IL-6 induced catagen in anagen HFs
B2,inhibition of anagen resulting from topical Ruxolitinib,telogen skin [5],inhibited anagen in the area it was administered
same,activation of JAK-STAT and MAPK-MEK-ERK pathways (Western blot),[2]; [7],activated JAK-STAT1/3/5 pathways and the MAPK-MEK-ERK pathways in HFSCs in a dose-dependent fashion
same,effect on PI3K/Akt/mTOR pathway (Western blot),[2]; [7],minimal effect on the PI3K/Akt/mTOR pathway
same,"activation of JAKs, pSTAT3 and pSTAT5 (Western blot)",[2]; OSM-stimulated cultured HFSCs,"dose-dependent activation of all four JAKs (JAK1, JAK2, JAK3, Tyk2), as well as pSTAT3 and pSTAT5"
same,colony formation of HFSCs,(ITGA6+ Sca-1−) HFSCs,prevented colonies from forming in vitro
same,hair reconstitution in patch assay,[4],sufficient to nearly completely inhibit hair reconstitution
same,effect on anagen,"hair follicles; mouse, literature",potent inhibitor of anagen
